Results from patent US20050249808A1, “NSAIDs compositions containing tartaric acid” (priority 2001, published 2005).
Like-named read-outs stand apart in the source and are kept apart here.

Legend:
[1] = Oral bioavailability of ibuprofen crushed tablets in control rats; type: in vivo; conditions: male, Sprague-Dawley, rat, plasma, 20 mg/kg, oral 20 mg/kg ibuprofen as crushed tablets, read-out: AUC (0-8)
Description: The animal models are Adult male Sprague-Dawley rats with body weight of 250-300 g, and which were cared for in accordance with the principles and guidelines of the Canadian Council of Animal Care. All rats were catheterized in the right jugular vein for sample collection.
The tablets were crushed gently and small pieces were administered into the stomach via a plastic tube followed by 0.5 mL tap water. […] They had free access to water.

[2] = cited from earlier work; for AUC0-2h: 600 mg ibuprofen dose
[3] = parts of drug dissolving in 10,000 parts of water; cited from earlier work

SMILES | AUC(0-t) [1] [ng·h/mL] | change in mean time to peak concentration caused by surgery ([2]; 200 mg and 600 mg doses, dental surgery) | AUC0-6h, effect of surgery ([2]; dental surgery) | solubility in water [3] | AUC0-2h ([2]; after dental extraction) [ng·h/mL] | AUC0-2h ([2]; before dental extraction) [ng·h/mL]
CC(C)Cc1ccc(C(C)C(=O)O)cc1 (racemic) [ibuprofen, (±)-2-(4-Isobutylphenyl)propionic acid] | 139000 | two hour delay | significantly reduced | less than 1 part | – | –
CC(C)Cc1ccc([C@@H](C)C(=O)O)cc1 [R-ibuprofen, R(−)-2-(4-isobutylphenyl)propionic acid] | – | – | – | – | 5800 ± 7100 | 14400 ± 9500
CC(C)Cc1ccc([C@H](C)C(=O)O)cc1 [S-ibuprofen, S(+)-2-(4-isobutylphenyl)propionic acid] | – | – | – | – | 7200 ± 5500 | 14200 ± 6100
